Legend:
[1] = biological target: Sigma intracellular receptor 2 (Homo sapiens, UniProt Q5BJF2); assay: GPCRScan assay: inhibition of Sigma 2; set-up: radioligand conc. used [nm] 5.0, parental cells HEKT
[2] = system: Tyrosine-protein kinase ABL1 (Homo sapiens), P00519 [H396P]; conditions: Compound concentration 1000.0 nM
[3] = system: Tyrosine-protein kinase ABL1 (Homo sapiens), P00519 [T315I]; conditions: Compound concentration 1000.0 nM
[4] = biological target: BMP-2-inducible protein kinase (Homo sapiens) (UniProt Q9NSY1); conditions: Compound concentration 1000.0 nM
[5] = biological target: Calcium/calmodulin-dependent protein kinase type 1B (Homo sapiens) (UniProt Q6P2M8); conditions: Compound concentration 1000.0 nM
[6] = biological target: Calcium/calmodulin-dependent protein kinase type II subunit alpha (Homo sapiens) (UniProt Q9UQM7); conditions: Compound concentration 1000.0 nM
Calcium/calmodulin-dependent protein kinase type II subunit alpha (Homo sapiens), sequence (Q9UQM7 whole entry): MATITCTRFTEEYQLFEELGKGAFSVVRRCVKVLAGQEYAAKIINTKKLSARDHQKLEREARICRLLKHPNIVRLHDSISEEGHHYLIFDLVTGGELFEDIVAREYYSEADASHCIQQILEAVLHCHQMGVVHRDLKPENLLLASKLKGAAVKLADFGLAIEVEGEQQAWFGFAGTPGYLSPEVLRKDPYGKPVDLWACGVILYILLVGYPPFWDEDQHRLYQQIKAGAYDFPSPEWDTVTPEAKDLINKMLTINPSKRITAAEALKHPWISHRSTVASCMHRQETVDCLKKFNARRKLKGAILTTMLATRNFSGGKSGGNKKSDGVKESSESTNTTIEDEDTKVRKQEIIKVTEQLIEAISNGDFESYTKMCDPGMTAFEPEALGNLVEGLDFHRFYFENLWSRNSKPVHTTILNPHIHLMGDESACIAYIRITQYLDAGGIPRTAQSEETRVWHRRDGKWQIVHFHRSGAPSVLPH

[7] = biological target: Calcium/calmodulin-dependent protein kinase type II subunit beta (Homo sapiens) (UniProt Q13554); conditions: Compound concentration 1000.0 nM
[8] = biological target: Cyclin-dependent kinase 13 (Homo sapiens) (UniProt Q14004); conditions: Compound concentration 1000.0 nM
[9] = biological target: Casein kinase I isoform gamma-1 (Homo sapiens) (UniProt Q9HCP0); conditions: Compound concentration 1000.0 nM
[10] = biological target: Casein kinase II subunit alpha (Homo sapiens) (UniProt P68400); conditions: Compound concentration 1000.0 nM
[11] = biological target: Epithelial discoidin domain-containing receptor 1 (Homo sapiens) (UniProt Q08345); conditions: Compound concentration 1000.0 nM
[12] = biological target: Ephrin type-A receptor 8 (Homo sapiens) (UniProt P29322); conditions: Compound concentration 1000.0 nM
[13] = biological target: Mitogen-activated protein kinase 1 (Homo sapiens) (UniProt P28482); conditions: Compound concentration 1000.0 nM
[14] = system: Fibroblast growth factor receptor 3 (Homo sapiens), P22607 [G697C]; conditions: Compound concentration 1000.0 nM
[15] = biological target: Hormonally up-regulated neu tumor-associated kinase (Homo sapiens) (UniProt P57058); conditions: Compound concentration 1000.0 nM
[16] = biological target: Mitogen-activated protein kinase kinase kinase 2 (Homo sapiens) (UniProt Q9Y2U5); conditions: Compound concentration 1000.0 nM
[17] = biological target: Mitogen-activated protein kinase kinase kinase 3 (Homo sapiens) (UniProt Q99759); conditions: Compound concentration 1000.0 nM
[18] = biological target: Dual specificity mitogen-activated protein kinase kinase 3 (Homo sapiens) (UniProt P46734); conditions: Compound concentration 1000.0 nM
Dual specificity mitogen-activated protein kinase kinase 3 (Homo sapiens), sequence (P46734 whole entry): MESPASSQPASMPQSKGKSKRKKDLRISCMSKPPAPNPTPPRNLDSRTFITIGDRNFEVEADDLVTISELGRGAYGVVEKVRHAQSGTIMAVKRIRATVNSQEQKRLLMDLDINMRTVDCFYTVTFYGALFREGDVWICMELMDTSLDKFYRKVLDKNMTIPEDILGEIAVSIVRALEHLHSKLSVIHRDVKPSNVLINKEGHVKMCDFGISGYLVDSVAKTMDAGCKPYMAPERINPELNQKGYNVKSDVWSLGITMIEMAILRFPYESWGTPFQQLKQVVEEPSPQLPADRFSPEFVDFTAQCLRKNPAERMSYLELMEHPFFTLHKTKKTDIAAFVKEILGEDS

[19] = biological target: Dual specificity mitogen-activated protein kinase kinase 4 (Homo sapiens) (UniProt P45985); conditions: Compound concentration 1000.0 nM
Dual specificity mitogen-activated protein kinase kinase 4 (Homo sapiens), sequence (P45985 whole entry): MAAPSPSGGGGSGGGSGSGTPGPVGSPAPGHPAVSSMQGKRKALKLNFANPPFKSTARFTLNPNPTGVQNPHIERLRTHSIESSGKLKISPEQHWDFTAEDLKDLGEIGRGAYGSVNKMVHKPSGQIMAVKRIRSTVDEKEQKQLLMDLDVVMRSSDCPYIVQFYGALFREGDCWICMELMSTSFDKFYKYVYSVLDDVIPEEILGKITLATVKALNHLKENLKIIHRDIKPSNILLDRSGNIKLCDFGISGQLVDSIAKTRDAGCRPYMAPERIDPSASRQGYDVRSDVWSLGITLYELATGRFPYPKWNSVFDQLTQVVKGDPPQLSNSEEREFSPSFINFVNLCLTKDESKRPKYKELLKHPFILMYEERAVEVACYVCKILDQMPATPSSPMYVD

[20] = biological target: Serine/threonine-protein kinase MRCK alpha (Homo sapiens) (UniProt Q5VT25); conditions: Compound concentration 1000.0 nM
[21] = biological target: Serine/threonine-protein kinase 3 (Homo sapiens) (UniProt Q13188); conditions: Compound concentration 1000.0 nM
[22] = biological target: Serine/threonine-protein kinase 24 (Homo sapiens) (UniProt Q9Y6E0); conditions: Compound concentration 1000.0 nM
Serine/threonine-protein kinase 24 (Homo sapiens), sequence (Q9Y6E0 whole entry, looked up): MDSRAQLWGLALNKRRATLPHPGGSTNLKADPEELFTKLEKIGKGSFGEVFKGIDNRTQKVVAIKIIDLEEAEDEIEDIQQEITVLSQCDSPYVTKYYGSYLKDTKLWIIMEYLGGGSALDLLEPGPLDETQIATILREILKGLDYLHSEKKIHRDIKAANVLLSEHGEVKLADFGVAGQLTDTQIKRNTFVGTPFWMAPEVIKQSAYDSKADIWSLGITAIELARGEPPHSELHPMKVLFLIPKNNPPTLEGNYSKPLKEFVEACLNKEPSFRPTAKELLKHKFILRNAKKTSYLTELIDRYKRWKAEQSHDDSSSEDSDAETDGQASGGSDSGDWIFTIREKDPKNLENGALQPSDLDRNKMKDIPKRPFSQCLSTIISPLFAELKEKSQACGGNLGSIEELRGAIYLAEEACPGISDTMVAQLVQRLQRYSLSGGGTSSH

[23] = biological target: Myosin light chain kinase 2, skeletal/cardiac muscle (Homo sapiens) (UniProt Q9H1R3); conditions: Compound concentration 1000.0 nM
[24] = biological target: Serine/threonine-protein kinase PAK 2 (Homo sapiens) (UniProt Q13177); conditions: Compound concentration 1000.0 nM
[25] = biological target: Serine/threonine-protein kinase PAK 5 (Homo sapiens) (UniProt Q9P286); conditions: Compound concentration 1000.0 nM
[26] = biological target: Platelet-derived growth factor receptor alpha (Homo sapiens) (UniProt P16234); conditions: Compound concentration 1000.0 nM
[27] = biological target: Platelet-derived growth factor receptor beta (Homo sapiens) (UniProt P09619); conditions: Compound concentration 1000.0 nM
[28] = biological target: Cyclin-dependent kinase 2 homolog (Plasmodium falciparum (isolate 3D7)) (UniProt P61075); conditions: Compound concentration 1000.0 nM
[29] = biological target: Phosphorylase b kinase gamma catalytic chain, skeletal muscle/heart isoform (Homo sapiens) (UniProt Q16816); conditions: Compound concentration 1000.0 nM
[30] = biological target: Phosphatidylinositol 4-kinase beta (Homo sapiens) (UniProt Q9UBF8); conditions: Compound concentration 1000.0 nM
[31] = biological target: 1-phosphatidylinositol 3-phosphate 5-kinase (Homo sapiens) (UniProt Q9Y2I7); conditions: Compound concentration 1000.0 nM
[32] = biological target: Serine/threonine-protein kinase pim-2 (Homo sapiens) (UniProt Q9P1W9); conditions: Compound concentration 1000.0 nM
[33] = biological target: Phosphatidylinositol 4-phosphate 5-kinase type-1 gamma (Homo sapiens) (UniProt O60331); conditions: Compound concentration 1000.0 nM
[34] = biological target: Serine/threonine-protein kinase PLK4 (Homo sapiens) (UniProt O00444); conditions: Compound concentration 1000.0 nM
[35] = biological target: Protein kinase C epsilon type (Homo sapiens) (UniProt Q02156); conditions: Compound concentration 1000.0 nM
[36] = biological target: cAMP-dependent protein kinase catalytic subunit PRKX (Homo sapiens) (UniProt P51817); conditions: Compound concentration 1000.0 nM
cAMP-dependent protein kinase catalytic subunit PRKX (Homo sapiens), sequence (P51817 whole entry): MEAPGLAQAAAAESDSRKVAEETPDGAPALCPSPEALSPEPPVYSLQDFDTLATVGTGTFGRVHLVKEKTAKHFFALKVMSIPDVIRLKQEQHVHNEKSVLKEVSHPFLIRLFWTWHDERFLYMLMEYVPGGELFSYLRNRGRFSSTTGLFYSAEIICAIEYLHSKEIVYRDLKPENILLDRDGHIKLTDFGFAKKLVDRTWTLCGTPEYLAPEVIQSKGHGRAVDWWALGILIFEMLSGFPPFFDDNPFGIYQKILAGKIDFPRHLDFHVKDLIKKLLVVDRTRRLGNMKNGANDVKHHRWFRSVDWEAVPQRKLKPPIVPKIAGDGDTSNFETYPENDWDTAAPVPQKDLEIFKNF

[37] = biological target: Serine/threonine-protein kinase SBK1 (Homo sapiens) (UniProt Q52WX2); conditions: Compound concentration 1000.0 nM
[38] = biological target: BDNF/NT-3 growth factors receptor (Homo sapiens) (UniProt Q16620); conditions: Compound concentration 1000.0 nM
[39] = biological target: Tyrosine-protein kinase TXK (Homo sapiens) (UniProt P42681); conditions: Compound concentration 1000.0 nM
[40] = biological target: Serine/threonine-protein kinase WNK1 (Homo sapiens) (UniProt Q9H4A3); conditions: Compound concentration 1000.0 nM
Serine/threonine-protein kinase WNK1 (Homo sapiens), sequence (Q9H4A3 whole entry, looked up): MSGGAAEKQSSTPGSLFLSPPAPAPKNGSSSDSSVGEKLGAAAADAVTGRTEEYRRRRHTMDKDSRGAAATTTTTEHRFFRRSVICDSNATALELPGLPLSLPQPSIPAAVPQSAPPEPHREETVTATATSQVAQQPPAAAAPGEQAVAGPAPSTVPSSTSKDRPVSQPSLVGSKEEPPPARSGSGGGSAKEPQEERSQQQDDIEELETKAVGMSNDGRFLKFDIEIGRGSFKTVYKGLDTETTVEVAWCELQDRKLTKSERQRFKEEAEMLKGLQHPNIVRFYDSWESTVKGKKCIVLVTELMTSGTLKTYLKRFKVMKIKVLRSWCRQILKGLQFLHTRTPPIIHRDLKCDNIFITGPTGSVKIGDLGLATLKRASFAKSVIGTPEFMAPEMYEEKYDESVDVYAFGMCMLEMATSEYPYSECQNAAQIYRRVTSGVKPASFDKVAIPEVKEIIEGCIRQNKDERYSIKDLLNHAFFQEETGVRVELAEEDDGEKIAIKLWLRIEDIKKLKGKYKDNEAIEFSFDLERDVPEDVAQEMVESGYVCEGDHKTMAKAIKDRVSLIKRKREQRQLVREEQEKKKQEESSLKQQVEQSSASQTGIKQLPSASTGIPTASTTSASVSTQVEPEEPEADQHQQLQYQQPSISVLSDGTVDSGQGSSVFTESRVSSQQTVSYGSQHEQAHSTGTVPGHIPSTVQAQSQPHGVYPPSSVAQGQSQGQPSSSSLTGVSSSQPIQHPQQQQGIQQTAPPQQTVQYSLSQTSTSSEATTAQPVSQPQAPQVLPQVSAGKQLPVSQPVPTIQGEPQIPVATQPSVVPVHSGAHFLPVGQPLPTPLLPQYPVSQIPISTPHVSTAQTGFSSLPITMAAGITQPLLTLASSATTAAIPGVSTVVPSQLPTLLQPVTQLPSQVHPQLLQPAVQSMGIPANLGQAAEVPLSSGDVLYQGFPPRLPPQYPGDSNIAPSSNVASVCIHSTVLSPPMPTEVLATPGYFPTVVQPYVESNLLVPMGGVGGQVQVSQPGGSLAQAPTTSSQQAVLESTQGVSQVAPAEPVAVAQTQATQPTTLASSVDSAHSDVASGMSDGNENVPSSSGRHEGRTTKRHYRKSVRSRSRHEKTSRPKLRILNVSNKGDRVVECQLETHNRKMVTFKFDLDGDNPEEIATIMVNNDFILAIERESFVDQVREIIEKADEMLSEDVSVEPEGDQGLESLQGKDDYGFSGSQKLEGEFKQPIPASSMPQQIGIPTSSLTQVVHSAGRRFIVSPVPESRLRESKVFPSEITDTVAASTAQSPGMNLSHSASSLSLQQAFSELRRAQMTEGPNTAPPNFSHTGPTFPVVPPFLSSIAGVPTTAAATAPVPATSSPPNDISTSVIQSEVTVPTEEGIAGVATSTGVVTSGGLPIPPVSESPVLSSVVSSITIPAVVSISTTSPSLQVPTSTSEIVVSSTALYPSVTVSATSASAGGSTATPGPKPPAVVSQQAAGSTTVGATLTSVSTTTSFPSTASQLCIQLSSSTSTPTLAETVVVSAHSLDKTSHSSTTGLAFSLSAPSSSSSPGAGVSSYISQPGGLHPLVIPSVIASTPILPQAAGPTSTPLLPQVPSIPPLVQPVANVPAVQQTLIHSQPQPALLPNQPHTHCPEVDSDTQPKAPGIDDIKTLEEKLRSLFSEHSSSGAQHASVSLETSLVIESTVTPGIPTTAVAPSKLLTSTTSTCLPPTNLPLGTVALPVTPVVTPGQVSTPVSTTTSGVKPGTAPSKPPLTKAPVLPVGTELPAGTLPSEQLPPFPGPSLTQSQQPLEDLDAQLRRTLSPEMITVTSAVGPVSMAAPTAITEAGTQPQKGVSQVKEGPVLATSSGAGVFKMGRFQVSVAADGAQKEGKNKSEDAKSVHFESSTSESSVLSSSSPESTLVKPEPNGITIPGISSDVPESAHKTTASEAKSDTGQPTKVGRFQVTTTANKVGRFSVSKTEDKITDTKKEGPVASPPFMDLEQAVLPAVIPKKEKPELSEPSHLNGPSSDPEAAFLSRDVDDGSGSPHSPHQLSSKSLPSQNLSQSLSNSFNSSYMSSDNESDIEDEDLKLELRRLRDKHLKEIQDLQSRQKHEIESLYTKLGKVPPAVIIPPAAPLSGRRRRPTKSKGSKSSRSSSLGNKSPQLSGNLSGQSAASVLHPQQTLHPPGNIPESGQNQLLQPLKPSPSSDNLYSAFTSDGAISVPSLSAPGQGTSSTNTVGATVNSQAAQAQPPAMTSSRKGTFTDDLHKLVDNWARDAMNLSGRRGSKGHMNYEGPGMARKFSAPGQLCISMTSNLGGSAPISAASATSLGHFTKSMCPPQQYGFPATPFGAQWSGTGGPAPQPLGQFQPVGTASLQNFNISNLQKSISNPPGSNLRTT

[41] = biological target: Sodium-dependent dopamine transporter (Homo sapiens, UniProt Q01959); conditions: Compound concentration 10.0 uM
[42] = biological target: Alpha-1A adrenergic receptor (Homo sapiens) (UniProt P35348); conditions: Compound concentration 10.0 uM
Alpha-1A adrenergic receptor (Homo sapiens), sequence (P35348 whole entry): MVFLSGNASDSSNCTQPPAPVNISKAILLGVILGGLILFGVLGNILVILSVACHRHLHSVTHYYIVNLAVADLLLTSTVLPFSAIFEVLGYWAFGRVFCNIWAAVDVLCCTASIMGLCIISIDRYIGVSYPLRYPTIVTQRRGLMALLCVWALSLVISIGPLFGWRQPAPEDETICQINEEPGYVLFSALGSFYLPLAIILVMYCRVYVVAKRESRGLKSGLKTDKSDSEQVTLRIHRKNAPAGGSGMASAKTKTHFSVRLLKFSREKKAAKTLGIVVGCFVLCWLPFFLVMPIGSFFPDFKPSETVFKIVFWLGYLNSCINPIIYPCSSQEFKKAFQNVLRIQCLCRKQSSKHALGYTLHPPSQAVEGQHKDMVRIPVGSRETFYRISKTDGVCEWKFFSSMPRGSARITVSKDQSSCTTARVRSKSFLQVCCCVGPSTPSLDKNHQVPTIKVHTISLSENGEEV

[43] = biological target: Muscarinic acetylcholine receptor M3 (Homo sapiens) (UniProt P20309); conditions: Compound concentration 10.0 uM
[44] = biological target: GABA-A receptor; anion channel (Rattus norvegicus) (UniProt O09028+P15431+P18506+P18508+P19969+P20236+P23574+P23576+P28471+P28473+P30191+P62813+P63079+P63138+Q91ZM7+Q9ES14); conditions: Compound concentration 10.0 uM

Sigma intracellular receptor 2, sequence (Q5BJF2 whole entry): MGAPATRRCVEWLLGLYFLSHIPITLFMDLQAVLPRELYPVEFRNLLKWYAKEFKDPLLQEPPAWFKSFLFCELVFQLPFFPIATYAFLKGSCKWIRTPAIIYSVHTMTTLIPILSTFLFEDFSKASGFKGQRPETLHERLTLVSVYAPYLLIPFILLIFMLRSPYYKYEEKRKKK

Cc1c(C(=O)O)cc(-c2ccc(C3CCNCC3)cc2)c2ccc(-c3ccc(C(F)(F)F)cc3)cc12 [PPTN-NC]
1700 nM: Ki [1]
inactive: residual activity [2] 72% | residual activity [3] 100% | residual activity [4] 83% | residual activity [5] 100% | residual activity [6] 100% | residual activity [7] 100% | residual activity [8] 100% | residual activity [9] 100% | residual activity [10] 100% | residual activity [11] 100% | residual activity [12] 100% | residual activity [13] 100% | residual activity [14] 100% | residual activity [15] 100% | residual activity [16] 100% | residual activity [17] 98% | residual activity [18] 100% | residual activity [19] 100% | residual activity [20] 100% | residual activity [21] 100% | residual activity [22] 100% | residual activity [23] 100% | residual activity [24] 100% | residual activity [25] 98% | residual activity [26] 100% | residual activity [27] 100% | residual activity [28] 100% | residual activity [29] 100% | residual activity [30] 100% | residual activity [31] 100% | residual activity [32] 100% | residual activity [33] 98% | residual activity [34] 96% | residual activity [35] 100% | residual activity [36] 100% | residual activity [37] 100% | residual activity [38] 100% | residual activity [39] 100% | residual activity [40] 100% | inhibition [41] 31.2% | inhibition [42] 25.4% | inhibition [43] 0.06% | inhibition [44] 10.6%

O=C(O)c1cc(-c2ccc(C3CCNCC3)cc2)c2ccc(-c3ccc(C(F)(F)F)cc3)cc2c1 [PPTN]
inactive: residual activity [2] 62% | residual activity [3] 100% | residual activity [4] 84% | residual activity [5] 100% | residual activity [6] 100% | residual activity [7] 100% | residual activity [8] 100% | residual activity [9] 100% | residual activity [10] 100% | residual activity [11] 100% | residual activity [12] 100% | residual activity [13] 97% | residual activity [14] 100% | residual activity [15] 100% | residual activity [16] 100% | residual activity [17] 83% | residual activity [18] 100% | residual activity [19] 100% | residual activity [20] 100% | residual activity [21] 100% | residual activity [22] 100% | residual activity [23] 100% | residual activity [24] 100% | residual activity [25] 100% | residual activity [26] 100% | residual activity [27] 100% | residual activity [28] 100% | residual activity [29] 100% | residual activity [30] 100% | residual activity [31] 100% | residual activity [32] 100% | residual activity [33] 100% | residual activity [34] 80% | residual activity [35] 100% | residual activity [36] 100% | residual activity [37] 100% | residual activity [38] 100% | residual activity [39] 100% | residual activity [40] 100% | inhibition [41] 37.7% | inhibition [42] 46.7% | inhibition [43] 9.47% | inhibition [44] -3.62%
1120 nM: Ki [1]
